# Assay results as given in patent publication US20010014345A1, “MATERIAL, METHOD AND APPARATUS FOR INHIBITING BACTERIAL GROWTH IN AN AQUEOUS MEDIUM” (priority 1995, published 2001).
# “And” between values parts separate entries of the source, which are not always exact repeats. Identical values can stand only once. Like-named read-outs stand apart in the source and are kept apart here.
# How the values were obtained:
# Pseudomonas aeruginosa [1] = test: Biocide efficiency (B.E.) of immobilised biocides in recirculating column test; format: cell-based
# [2] = Presence or absence of free biocide in filter-sterilised culture after contact with active beads (MS and/or HPLC; leaching); format: physicochemical
# Pseudomonas aeruginosa [3] = test: Recirculating column test of immobilised biocide (active beads), viable bacterial counts / growth curve; format: cell-based; conditions: active beads on Amberlite XAD-4 or XAD-2, 10x1 cm column, after 24 hours, FIG. 2
# [4] = Partition coefficients between octanol and water by UV/visible absorption
# [5] = column length 10 cm, biocide immobilised on Amberlite XAD-4, 24 h, 30° C., 13.5 ml/min
structure (smiles),measurement,setting,value
O=[N+]([O-])C(Br)(CO)CO [Bronopol],B.E. (t-24 h),Pseudomonas aeruginosa [1]; [5],−0.80
same,logP,physchem,0.18
"CCCCCCCCn1sccc1=O [Compound 5, 2-n-octyl-isothiazolin-3-one]",B.E. (t-24 h),Pseudomonas aeruginosa [1],0.80 and 0.60
same,Present (MS): free biocide in solution,[2],trace
"CCCCCCCCn1sc2ccccc2c1=O [Compound 1, 2-n-octylbenzoisothiazolin-3-one]",B.E. (t-24 h),Pseudomonas aeruginosa [1]; [5],0.48
same,bacterial population versus blank bead controls,Pseudomonas aeruginosa [3],significantly lower
CCCCCCCCCCCC[N+](C)(C)CCOc1ccccc1 [Domiphen],logP,physchem,1.7
Cn1sc2c(c1=O)CCC2 [Promexal],P (partition coefficient between octanol and water),"[4]; 25° C., UV/visible absorption",˜4.5
same,logP,[4]; n-octanol/water,0.6
O=c1[nH]sc2ccccc12 [Proxel],logP,physchem,-1.3
"CCCCCCCCCCCCCCCCCCn1sc(Cl)cc1=O [Compound 4, 5-chloro-2-n-octadecyl-isothiazolin-3-one]",B.E. (t-24 h),Pseudomonas aeruginosa [1],0.70 and 0.82 and 0.73 and 0.99 and 0.98
"CCCCCCCCCCCCCCCCn1sc2ccccc2c1=O [Compound 2, 2-n-hexadecyl-benzoisothiazolin-3-one]",B.E. (t-24 h),"Pseudomonas aeruginosa [1]; column length 10 cm, biocide immobilised on Amberlite XAD-2, 24 h, 30° C., 13.5 ml/min",0.84
same,B.E. (t-24 h),Pseudomonas aeruginosa [1]; [5],0.68 and 1.02 and 0.82 and 0.91
same,B.E. (t-24 h),"Pseudomonas aeruginosa [1]; column length 20 cm, biocide immobilised on Amberlite XAD-4, 24 h",0.99 and 0.64 and 0.75
same,B.E. (t-24 h),"Pseudomonas aeruginosa [1]; column length 30 cm, biocide immobilised on Amberlite XAD-4, 24 h",0.64 and 0.86
same,B.E. (t-24 h),"Pseudomonas aeruginosa [1]; column length 40 cm, biocide immobilised on Amberlite XAD-4, 24 h",0.90
